# How the values were obtained:
# [1] = Ferric reducing antioxidant power (FRAP) assay
# Experimental: The antioxidant property of different tryptamine derivatives were assessed and compared with the known antioxidants for potency. […] The FRAP assay is based on the measurement of the ability of the substance to reduce Fe^3+ to Fe^2+, greater the reducing ability greater the anti oxidant property. Antioxidants reduce Fe^3+-TPTZ in to blue colored Fe^2+-TPTZ complex, which results in an increase in the absorbance at 595 nm giving a FRAP value. […] Absorbance changes at different time intervals (FIG. 6) as well as at different concentrations (FIG. 7) at time 6 min in the presence of different compounds at 595 nm were measured. FRAP values at 6 min and 65 min were calculated from different tryptamine derivatives and some known antioxidant (Table 1). […] DPPH assay based on the DPPH free radicals scavenging power of the antioxidant molecules. Higher the scavenging power higher will be the antioxidant property.
# The assay was performed in a 96-well microplate. FRAP reagent was prepared by mixing of 10 ml acetate buffer (200 mM, pH-3.6), 1 ml of 2,4,6-tris(2-pyridyl)-s-triazine (TPTZ) solution (10 mM in 40 mM HCl) and 1 ml of ferric chloride solution (20 mM) in distilled water. For 1 h the mixture was kept in a water bath at 37° C. In 96-well microplates, 25 μL of the compounds under investigation dissolved (in methanol, some compound dissolved in water) at different concentrations in the range 1-25 μM was placed in triplicate and freshly prepared FRAP solution (175 μL) was added to this sample. A micro plate reader monitored the absorbance at 595 nm at different time intervals for up to 150 min. The absorbance of a mixture 175 μL TRAP sol and 25 μL methanol or water was taken which was subtracted from the absorbance of the samples at each time interval to calculate the absorbance change (ΔA). The FRAP value at time interval t (FRAP valuet) was calculated according to the formula: FRAP valuet(M)=(ΔatFl/ΔatFe^2+)×10^−5 Where ΔatFl is the absorbance change after the time interval t (6 and 65 min) relative to the tested flavonoid at the concentration of 10 μM and ΔatFe^2+ is the absorbance change at the same time interval relative to ferrous sulfate at the same concentration (Pal, C; et al. Free Radic Biol Med, 49(2), 258-267, 2010, Firuzi, O; et al. Biochim. Biophys. Acta 1721:174-184; 2005).
# [2] = test system: diclofenac induced gastric mucosal injury; experiment: Diclofenac-induced gastric mucosal injury (ulcer index); assay type: in vivo, Sprague-Dwaley rats; conditions: diclofenac 75 mg kg^−1 oral
# Experimental: Sprague-Dwaley rats (180-220 gm) were used for this study. Each group (control or experimental) of animals was maintained at 24±2° C. with 12 hrs lights and dark cycle. The animals were fasted for 24 hrs before the start of experiments. They were provided with water ad libitum to avoid food-induced increased acid secretion and its effect on gastric lesions. Gastric mucosal ulcer was developed by indomethacin as described (Pal, C; et al. Free Radic Biol Med, 49(2), 258-267; 2010, Biswas, K.; et al. J. Biol. Chem. 278:10993-11001; 2003, Bandyopadhyay, U.; et al. Life Sci. 71:2845-2865; 2002). Briefly, all the animals were divided into control, indomethacin and test compound group. Oral administration of indomethacin at a dose of 48 mg kg^−1 b.w was given to the fasted animals to induce gastric ulcer. In the drug-pretreated groups, the animals were given drug (50, 20, 10, 5, 3, 1 mg kg^−1 b.w.) intraperitoneally 30 min prior to ulcer induction with indomethacin. Control group received vehicle only but no indomethacin. After 4 hrs of indomethacin treatment, the animals were sacrificed under proper euthanasia and stomachs were collected. The mucosal injury was scored as ulcer index as follows: 0=no pathology; 1=one pinhead ulcer. The sum of the total scores divided by the number of animals gave the ulcer index. All the in vivo studies were done in accordance with the institute animal ethical committee guidelines. To see the effect of SEGA on diclofenac induced gastric mucosal injury, gastric mucosal damage was developed by the oral administration of diclofenac (75 mg kg^−1) and the rest of the experiment was carried out in a similar way as described for indomethacin. Diclofenac produced pinhead ulcer like indomethacin and the mucosal injury was scored as ulcer index as described above. Ethanol-induced gastric mucosal injury was developed with oral administration of 1 ml of 50% ethanol (Banerjee, R. K. (2002) Life Sci 71, 2845-2865) and after 4 hrs the animals were sacrificed and cold-restrain stress induced mucosal injury was developed by immobilizing the animals at 4° C. for 3.5 hrs (Banerjee, R. K. (2002) Life Sci 71, 2845-2865, (2003) J Biol Chem 278, 10993-11001).
# [3] = test system: cold-restrain stress induced mucosal injury; experiment: Cold-restrain stress induced mucosal injury; assay type: in vivo, Sprague-Dwaley rats; conditions: immobilized at 4° C. for 3.5 hrs; rats
# caspase-3 = experiment: Caspase-3 activity in gastric mucosal tissue; assay type: in vivo, rats; conditions: in dose dependent manner; gastric mucosa
# Experimental: (§1) From cytosolic fraction of gastric mucosal tissues, caspase-9 and caspse-3 activities were measured using commercially available kit (Biovision, Mountain View, Calif., USA and Sigma respectively). In brief, the gastric mucosa was homogenized in caspase lysis buffer (provided with the respective kit). The homogenate was centrifuged at 16,000×g for 15 min. The supernatant was collected and mixed with 50 μl of 2× reaction buffer (provided with the respective kit). This was followed by addition of the substrates: […] (200 μM final concentration) for caspase-3 and LEHD-pNA (200 μM final concentration) for caspase-9. The mixture was incubated at 37° C. for 1 hr and absorbance was taken at 405 nm (Maity, P.; et al. J. Biol. Chem. 284:3058-3068; 2009, Maity, P.; et al. J. Biol. Chem. 283:14391-14401; 2008, Maity, P.; et al. J. Pineal Res. 46:314-323; 2009).
# caspase-9 = experiment: Caspase-9 activity in gastric mucosal tissue; assay type: in vivo, rats; conditions: gastric mucosa
# Experimental: as §1
# gastric mucosal cells = experiment: TUNEL assay of gastric mucosa in vivo; parameters: species or system rats
structure (smiles),measurement,setting,value
"O=C(NCCc1c[nH]c2ccc(O)cc12)c1cc(O)c(O)c(O)c1 [Compound 3a, 3,4,5-trihydroxy-N-(2-(5-hydroxy-1H-indol-3-yl)ethyl)benzamide]",FRAP Value6 min (μM) M ± SD,"[1]; 6 min, compound at 10 μM relative to ferrous sulfate",39.51 ± 2.7 µM
same,FRAP Value65 min (μM) M ± SD,"[1]; 65 min, compound at 10 μM relative to ferrous sulfate",60.61 ± 7.3 µM
same,reducing ability (Fe^3+ to Fe^2+) / antioxidant property in words,[1]; compared to other tryptamine derivatives and known antioxidants,greater reducing ability
same,"protection, diclofenac induced ulcer",[2]; dose 1 mg kg^−1 i.p.,22%
same,"protection, diclofenac induced ulcer",[2]; dose 3 mg kg^−1 i.p.,25%
same,"protection, diclofenac induced ulcer",[2]; dose 5 mg kg^−1 i.p.,42%
same,"protection, diclofenac induced ulcer",[2]; dose 10 mg kg^−1 i.p.,57%
same,"protection, diclofenac induced ulcer",[2]; dose 20 mg kg^−1 i.p.,72%
same,"protection, diclofenac induced ulcer",[2]; dose 50 mg kg^−1 i.p.,82%
same,gastroprotective effect in stress induced gastropathy,[3],protects the gastric mucosa
same,indomethacin-induced activation of caspase-3,caspase-3,prevents indomethacin-induced activation of caspase-3
same,activation of caspase-9 during indomethacin treatment,caspase-9,prevents the activation of caspase-9
same,indomethacin-induced apoptosis (TUNEL) in vivo,gastric mucosal cells,prevents the indomethcin-induced apoptosis

# — US8901317B2, “Tryptamine derivatives, their preparation and their use in gastropathy” (Council of Scientific & Industrial Research, priority 2010, dated 2014)
